From BindingDB's records for patent US11555039 (Translational Drug Development, 2023) come the findings set out here.

For the assay, the target named is Rho-associated protein kinase 2 (Homo sapiens, UniProt O75116). In words: Kinase Inhibition.
Sequence of Rho-associated protein kinase 2 (O75116 whole entry): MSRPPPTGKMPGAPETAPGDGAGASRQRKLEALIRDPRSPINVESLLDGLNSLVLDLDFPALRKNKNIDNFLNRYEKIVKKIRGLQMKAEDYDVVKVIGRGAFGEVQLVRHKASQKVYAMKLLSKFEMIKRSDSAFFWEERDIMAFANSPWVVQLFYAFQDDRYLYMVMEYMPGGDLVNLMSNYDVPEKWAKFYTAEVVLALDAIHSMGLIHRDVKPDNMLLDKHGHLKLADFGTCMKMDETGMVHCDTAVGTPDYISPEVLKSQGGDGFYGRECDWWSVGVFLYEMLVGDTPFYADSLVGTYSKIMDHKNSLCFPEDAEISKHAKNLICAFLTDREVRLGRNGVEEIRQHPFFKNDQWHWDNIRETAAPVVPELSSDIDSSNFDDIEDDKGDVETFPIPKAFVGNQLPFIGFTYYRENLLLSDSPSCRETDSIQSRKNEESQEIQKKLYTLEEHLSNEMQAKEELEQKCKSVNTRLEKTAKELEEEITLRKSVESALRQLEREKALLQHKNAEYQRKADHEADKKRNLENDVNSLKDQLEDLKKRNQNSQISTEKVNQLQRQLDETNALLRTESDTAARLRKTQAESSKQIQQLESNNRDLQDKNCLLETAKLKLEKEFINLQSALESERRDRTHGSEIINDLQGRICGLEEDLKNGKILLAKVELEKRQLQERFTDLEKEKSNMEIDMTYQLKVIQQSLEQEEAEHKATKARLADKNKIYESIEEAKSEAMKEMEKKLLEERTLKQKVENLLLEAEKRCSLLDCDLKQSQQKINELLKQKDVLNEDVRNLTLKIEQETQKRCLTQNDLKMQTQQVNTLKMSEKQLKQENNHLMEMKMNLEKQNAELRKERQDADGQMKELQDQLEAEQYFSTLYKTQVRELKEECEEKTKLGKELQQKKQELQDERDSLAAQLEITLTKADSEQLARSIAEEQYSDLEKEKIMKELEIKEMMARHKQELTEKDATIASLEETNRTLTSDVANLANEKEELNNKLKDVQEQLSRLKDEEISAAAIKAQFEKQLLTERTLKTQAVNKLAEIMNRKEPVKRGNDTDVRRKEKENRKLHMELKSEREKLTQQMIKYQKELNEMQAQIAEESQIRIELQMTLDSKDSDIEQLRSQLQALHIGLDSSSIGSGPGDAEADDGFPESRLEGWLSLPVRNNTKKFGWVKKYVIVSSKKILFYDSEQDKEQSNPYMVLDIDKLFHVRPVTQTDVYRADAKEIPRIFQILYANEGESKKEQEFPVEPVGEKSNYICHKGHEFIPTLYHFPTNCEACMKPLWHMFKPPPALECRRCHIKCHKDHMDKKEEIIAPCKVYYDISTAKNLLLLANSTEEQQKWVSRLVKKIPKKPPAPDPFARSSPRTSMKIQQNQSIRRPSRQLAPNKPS

As for `CCOc1ccc(NC(=O)c2cccc([C@@H](CO)NC(=O)c3ccc(-c4ccncc4)cc3)c2)cn1` [US11555039, Compound ID 93], the half-maximal inhibitory concentration (IC50) (commonly the concentration at which inhibition is half-maximal) is 0.51 nM.
